How the values were obtained:
cTnI-G203S mice = test: Echocardiography of pre-cardiomyopathic cTnI-G203S mice (Example 15); format: in vivo, mouse; conditions: 5 μM, 3×/wk/5 wk; versus AID(S)-TAT; FIG. 15
From the text: Twenty to thirty week-old male mice expressing the human cTnI gene encoding the human disease-causing cTnI-G203S were generated and used for the in vivo studies. By way of background, the mice develop hallmark features of HCM between 20 and 25 weeks (Viola H, Johnstone V, Cserne Szappanos H, Richman T, Tsoutsman T, Filipovska A, et al. The L-type Ca(2+) channel facilitates abnormal metabolic activity in the cTnI-G2035 mouse model of hypertrophic cardiomyopathy. J Physiol. 2016; 594(14):4051-70; Viola H M, Shah A A, Johnstone V P A, Cserne Szappanos H, Hodson M P, Hool L C. Characterization and validation of a preventative therapy for hypertrophic cardiomyopathy in a murine model of the disease. Proc Nati Aced Sci U S A. 2020; 117(37):23113-24; Tsoutsman T, Chung J, Doolan A, Nguyen L, Williams IA, Tu E, et al. Molecular insights from a novel cardiac troponin I mouse model of familial hypertrophic cardiomyopathy. J Mol Cell Cardiol. 2006; 41(4):623-32). Age-matched male mice expressing the normal human troponin I gene were used as controls and indicated as wild-type (wt). For in vivo studies, 20-week old cTnI-G203S mice were treated with 10 μM AID(S)-TAT (2 mg/kg) or 5 μM AID-TAT mutant peptides via intraperitoneal injection, 3 times per week for a total duration of 5 weeks. The peptide was dissolved in phosphate buffered saline solution (PBS), and the total amount of the 10 μM AID-TAT mutant peptides administered over 5 weeks was 0.9 mg. The total amount of the 5 μM AID-TAT mutant peptides administered over 5 weeks was 0.45 mg Male mice were utilized to eliminate potential differences in responses due to gender. The number of mice used is indicated by N.
Echocardiographic studies to measure left ventricular function were performed on mice under light methoxyflurane anaesthesia with the use of an i13L probe on a Vivid™ 7 IQ ultrasound system (GE Healthcare, Little Chalfont, UK) as previously described (Viola H, Johnstone V, Cserne Szappanos H, Richman T, Tsoutsman T, Filipovska A, et al. The L-type Ca(2+) channel facilitates abnormal metabolic activity in the cTnI-G2035 mouse model of hypertrophic cardiomyopathy. J Physiol. 2016; 594(14):4051-70; Viola H M, Shah A A, Johnstone V P A, Cserne Szappanos H, Hodson M P, Hool L C. Characterization and validation of a preventative therapy for hypertrophic cardiomyopathy in a murine model of the disease. Proc Natl Acad Sci U S A. 2020; 117(37):23113-24; Viola H M, Johnstone V P A, Cserne Szappanos H, Richman T R, Tsoutsman T, Filipovska A, et al. The Role of the L-Type Ca(2+) Channel in Altered Metabolic Activity in a Murine Model of Hypertrophic Cardiomyopathy. JACC Basic Transl Sci. 2016; 1(1-2):61-72). Each N represents the average of quantitative measurements from wt or cTnI-G203S mice for each treatment group.

[1] = test system: myocytes isolated from cTnI-G203S mutant mouse hearts; test: Mitochondrial flavoprotein oxidation after BayK(−), myocytes from HCM hearts (Example 6); format: cell-based; conditions: FIG. 5
Description: FIG. 5 presents the effect of mutant peptides on flavoprotein oxidation, a measure of metabolic activity and oxygen consumption in myocytes isolated from cTnI-G203S mutant mouse hearts that are hypertrophic.
All in vitro studies were performed in freshly isolated myocytes at 37° C. […] Following a 20 min incubation with 0.5-1 μM AID(S)-TAT, AID-TAT, peptide 6 or peptide 7, fluorescent signal of individual myocytes was quantified using Metamorph 6.3 to measure signal intensity of manually traced cell regions. An equivalent region not containing cells was used for background and was subtracted.
Autofluorescence was used to measure flavoprotein oxidation in cardiac myocytes based on previously described methods (480 nm ex, 535 nm em). Fluorescent images were taken at 1 min intervals with 1 s exposure before and after exposure to L-type Ca2+ channel agonist BayK(−). Fluorescence was reported as a percentage from the baseline pre-treatment average.

Cavβ2 subunit = biological target: T1, Cavβ2 subunit (Homo sapiens, UniProt Q08289); test: Competitive binding affinity assay, biotinylated AID affinity beads vs Cavβ2 subunit (Example 9); conditions: dose-response 0, 10 nM to 100 μM peptide; FIG. 9
T1 construct: incubated with 100 μg of Cavβ2 subunit from cardiac homogenate and cytoplasmic protein preparation; from tissue; host or cells: cardiac homogenate and cytoplasmic protein preparation
Description: In this experiment, a binding affinity assay was utilized to examine the binding efficacy of AID peptide variants presented in Table 8, compared to the original AID peptide.
Biotinylation of original AID (no TAT): For each reaction (a dose-response curve consisted of 6 reactions), 0.02 nM […] was incubated in biotinylation solution (0.1M MES buffer containing 1 nM amine-PEG11-biotin and 0.2 nM EDC) for 2 hrs at room temperature with agitation (400 rpm). Affinity beads (Dynabeads M-280 Streptavidin, ThermoFisher Scientific) were then incubated with biotinylated AID peptide for 30 min at room temperature with agitation (400 rpm). Afterwards, biotinylated AID-coated affinity beads were washed, initially in 0.1% BSA in PBS and then three times in PBS for 3 min.
Biochem J. 2000; 348 Pt 3:657-65; Haase H, Striessnig J, Holtzhauer M, Vetter R, Glossmann H. A rapid procedure for the purification of cardiac 1,4-dihydropyridine receptors from porcine heart. Eur J Pharmacol. 1991; 207(1):51-9).
Competitive binding of AID-affinity beads and Cavβ2 subunit: Cavβ2-AID mutant peptide dilutions were then incubated with biotinylated AID-coated affinity beads for 2 hrs at room temperature with gentle agitation (400 rpm). Samples were placed on a magnetic stand to allow affinity beads to migrate to the magnet. Supernatant was removed and treated with 1× sample buffer (62.5 mM Tris-HCl, pH 6.8, 2% SDS, 10% glycerol, 100 mM DTT, 0.002% Bromophenol Blue) for 5 min at 95° C. Resulting protein was analysed by immunoblot.

[2] = biological target: T2, L-type Ca^2+ channel β2 subunit (Homo sapiens, UniProt Q08289); test: Binding competition assay of variant peptides for the β2 subunit (AID-coated beads, heart lysate, SDS-PAGE); conditions: competition with bead-bound AID peptide, whole heart lysate, immunoblot densitometry; FIG. 2
T2 construct: from tissue; host or cells: whole heart (cardiac) lysate
Description: The affinity of each of the variant peptides to the β2 subunit was investigated through binding competition assays.
PureProteome™ NHS FlexiBind Magnetic Beads (Cat. #LSKMAGN04, Merck) were used following manufacturer recommendations. Aminohexanoic acid linked AID peptide was bound to the NHS flexibind magnetic beads at a concentration of more than 2 mg/mL to obtain saturation of the beads with peptide. Beads were first primed with an equilibration buffer (1 mM HCL) to prepare them for binding. The Ahx-AID peptide was dissolved in wash/coupling buffer (PBS, pH 7.4) and added to the beads. The beads-AID peptide mixture was left to mix uniformly on a multiplate shaker at a speed of 300 rpm at room temperature for 2 hours. To reduce non-specific binding the beads were incubated in Quench Buffer (100 mM Tris-HCl, 150 mM NaCl, pH 8.0) at room temperature for 1 hour.
The AID-peptide bound beads were split into 5 aliquots for the 5 samples prepared in Table 5. The whole heart lysate added to each of the peptide-bound beads to allow competitive binding for 2 hours at room temperature.
Upon completion, the conjugate was washed in coupling buffer, to remove unbound fraction. SDS sample buffer was added to the beads, with the tubes then heated for 5 minutes at 95° C. The eluted sample stored at −20° C. to be run through sodium dodecyl sulfate-polyacrymalide gel electrophoresis (SDS-PAGE) to determine the binding affinity of each of the variants.
The use of streptavidin dynabeads and biotinylated peptide was developed to improve the binding affinity assays. The peptide was initially biotinylated using EZ-link amine-PEG11-biotin (Spacer arm: 53.2 Å, Thermofisher Scientific, Cat. #26136) which was dissolved in 0.1M MES buffer ((2-N-morpholino)-ethanesulfonic acid) at a concentration of 1 mM. Just prior to the reaction, 0.1M EDC (N-(3-Dimethylaminopropyl)-N′-ethylcarbodiimide hydrochloride) was dissolved in MES buffer. In order to achieve complete biotinylation of the AID peptide, a 50× molar excess of biotin to peptide was required, with the total volumes of each component required shown in Table 6.
Each 78 μL aliquot of the biotinylated peptide shown in […] was enough for 6 reactions, covering the range of concentrations in which the heart lysate was again prepared with varying concentrations of the variant AID peptides according to Table 7.
The 78 μL aliquot of biotinylated AID-peptide was mixed with streptavidin dynabeads (1 mg Dynabeads per every 200 pmol biotinylated peptide) for half an hour at room temperature. The heart lysate ([…]) was incubated with the variant peptides at room temperature for 2 hours. After removing all unbound peptide from the beads, they were mixed with the pre-bound heart lysate for 2 hours at room temperature. The unbound fraction was removed. […]

cTnI.2 wt myocytes = test: Flavoprotein oxidation response to BayK(−), wt myocytes (Example 10); format: cell-based, mouse; conditions: 0.5 μM peptide 20 min, 10 μM BayK(−), FIG. 10B
Description: In this experiment wt myocytes were pre-exposed to 0.1, 0.5 or 1 μM for 20 min and assessed changes in flavoprotein oxidation and ψm.
Measurement of mitochondrial flavoprotein oxidation: Flavoprotein autofluorescence was used to measure flavoprotein oxidation based on previously described methods (Yaniv Y, Juhaszova M, Lyashkov A E, Spurgeon H A, Sollott S J, Lakatta E G. Ca2+-regulated-cAMP/PKA signaling in cardiac pacemaker cells links ATP supply to demand. J Mol Cell Cardiol. 2011; 51(5):740-8). […] Fluorescent images were acquired at 1 min intervals with 200 ms exposure. Metamorph 6.3 (Version 7.10.3) was used to quantify the signal by manually tracing myocytes. An equivalent region not containing cells was used as background and was subtracted. Fluorescence values recorded over 5 min before and 5 min after addition of drugs were averaged and alterations in fluorescent ratios reported as the percentage increase from the basal average. FCCP (50 μM) and NaCN (40 mM) was added at the end of each experiment to achieve a respective maximal and minimal fluorescence value indicative of maximal and minimal flavoprotein oxidation.
The ICA-L agonist BayK(−) was used to activate the channel and assess mitochondrial function. […] FIG. 10 presents the mean+/−SEM of flavoprotein fluorescence from cTnI.2 wt and cTnI-G2035 mutant myocytes before and after exposure to 10 μM BayK(−) in the presence of 1 μM AID(S)-TAT, and increasing concentrations of variant peptides as indicated. N=no. of animals, n=no. of cardiomyocytes. P values shown compared with AID(S)-TAT as determined by the Kruskal-Wallis test.

T1 sequence (Q08289 whole entry): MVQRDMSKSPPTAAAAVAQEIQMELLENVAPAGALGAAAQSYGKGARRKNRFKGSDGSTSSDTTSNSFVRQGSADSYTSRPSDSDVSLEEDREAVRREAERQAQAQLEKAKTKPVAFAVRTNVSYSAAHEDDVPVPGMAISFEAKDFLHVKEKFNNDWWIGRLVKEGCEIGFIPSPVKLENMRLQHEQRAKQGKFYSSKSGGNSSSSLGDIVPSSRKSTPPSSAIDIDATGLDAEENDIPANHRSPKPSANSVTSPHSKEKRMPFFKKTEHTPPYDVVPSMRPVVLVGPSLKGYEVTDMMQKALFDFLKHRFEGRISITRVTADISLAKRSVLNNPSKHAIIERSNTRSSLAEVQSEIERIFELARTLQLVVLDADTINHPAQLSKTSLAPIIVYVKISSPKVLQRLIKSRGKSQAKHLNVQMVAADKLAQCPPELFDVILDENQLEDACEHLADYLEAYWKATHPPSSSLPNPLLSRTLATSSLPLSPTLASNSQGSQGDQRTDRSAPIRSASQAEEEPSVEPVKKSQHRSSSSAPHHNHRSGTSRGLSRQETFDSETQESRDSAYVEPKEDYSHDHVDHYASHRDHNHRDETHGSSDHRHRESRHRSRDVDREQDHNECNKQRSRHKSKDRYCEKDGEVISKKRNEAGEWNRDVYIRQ
T2 sequence (Q08289 whole entry): as above

| Substance | IVSd, intraventricular septum in diastole (cTnI-G203S mice) | IVSs, intraventricular septum in systole (cTnI-G203S mice) | flavoprotein oxidation in comparison with AID-TAT peptide [1] | K0.5 values compared to AID peptide (Cavβ2 subunit) | binding affinity (K0.5) for the target β2 subunit versus the original AID peptide [2] | BayK(−) induced increase in flavoprotein oxidation (cTnI.2 wt myocytes) |
| --- | --- | --- | --- | --- | --- | --- |
| AIDP16-TAT: QQREEDLKGYLDWITQAE with TAT sequence | restored IVSd and IVSs only | restored IVSd and IVSs only |  |  |  |  |
| QQEEEDEKGYLDWITQAE (Variant P15) |  |  | statistically significant reduction in flavoprotein oxidation in comparison with AID-TAT peptide | decreased K0.5 values | greater binding affinity (lower K0.5) | effective |
| QQEEEDLKGYLDWITQAE (Varian P14) [Variant P14] |  |  | statistically significant reduction in flavoprotein oxidation in comparison with AID-TAT peptide | decreased K0.5 values | greater binding affinity (lower K0.5) | effective |
| QQREEDLKGYLDWITQAE (Variant P16) |  |  |  | decreased K0.5 values | greater binding affinity (lower K0.5) |  |

— US20240158447A1, “PEPTIDES FOR USE IN THE TREATMENT OR PREVENTION OF MYOCARDIAL DAMAGE” (THE UNIVERSITY OF WESTERN AUSTRALIA, priority 2020, published 2024)
